# Test results reported in patent US9840483B2, “Radiomitigating pharmaceutical formulations” (The Regents of the University of California, priority 2013, dated 2017).
# Experiments:
# Solubility = format: physicochemical
# [1] = system: Til-1 murine lymphocyte cells; experiment: Mitigation of radiation-induced apoptosis in vitro: viability of irradiated Til-1 cells (ATPlite) screen; format: cell-based; conditions: Mus musculus, light or radiation study, added 1 hour after 2 Gy, viability 24 h after radiation, relative to control irradiated value (100%), read-out: In Vitro (Mitigation cell viability %)
# Experimental: The ability of compounds from Example 1 to mitigate radiation-induced apoptosis in vitro relative to control values (100%) is shown in FIG. 1. Briefly, 100,000 small-molecules were screened at 10 μM final concentration in 1% dimethylsulfoxide (DMSO) using the viability of a murine lymphocyte line as a readout (Mitigation cell viability %). Ten thousand Til-1 murine lymphocyte cells were dispensed into each well of 384-well plates using a Multidrop 384 (Thermo Scientific, Waltham, Mass.) The Til-1 cells were irradiated at the dose of 2 Gy. After 1 hour, the small-molecules were added. Twenty-four hours after the radiation, cell viability was assayed by luminesce-based measurement of ATP production (ATPlite, Perkin-Elmer, Waltham, Mass.) with a SpectraMax M5 microplate reader (Molecular Devices, Sunnyvale, Calif.). The Z′ factor for the assay was >0.5. See Zhang, J. H., Chung, T. D., Oldenburg, K. R. “A Simple Statistical Parameter for Use in Evaluation and Validation of High Throughput Screening Assays,” J Biomol Screen 4:67, 1999. A positive readout was >130% of the control irradiated value.
# [2] = system: endogenous colony forming units in the spleens; experiment: Endogenous colony forming units in spleens after WBI; format: in vivo, mice; conditions: for Average endogenous CFU per spleen / Total endogenous CFU in spleens: 10 days after WBI at 6.5 Gy, 7.0 Gy, and 7.5 Gy
# From the text: For example, Compound 2 (5355512) increased the total endogenous CFU in spleens and average endogenous CFU per spleen, at 10 days after whole body irradiation (WBI) at varying doses (e.g. 6.5 Gy, 7.0 Gy, and 7.5 Gy). (See FIG. 13).
# [3] = system: Lewis lung (LLC) tumor lung colonies; experiment: Lewis lung (LLC) model of artificial metastasis; format: in vivo, mice
# Experimental: The Lewis lung (LLC) model of artificial metastasis was used to test the effects of the drug on the growth of tumor lung colonies in vivo and on radiation response. This was chosen because it is easy to see any drug effects on growth promotion and radioprotection in multiple tumors simultaneously. Specifically, C57Bl/6 mice and C3H mice were injected intravenously with 5×10^4 tumor cells. Subcutaneous injections of compound 2 (5355512) were started on day 4 when the tumors were already established in the lung. A daily dose of 20 mg/kg for 5 days was used to bias the experiment in favor of any tumor growth promotion. Local thoracic irradiation (LTI) was started on day 5 with 4 Gy daily doses for 3 days. This is higher than conventional 2 Gy to compensate for the rapid growth of murine tumors, but is still well within the higher ranges used clinically in hypofractionated exposures. The colonies were counted on day 14. […] LTI alone decreased the number of colonies by 40%.
# myeloid suppressor cells = experiment: In vivo anti-inflammatory activity, generation of myeloid suppressor cells; conditions: data not shown
# C3H mice and C57 mice = experiment: Local thoracic irradiation, radiation pneumonitis and fibrosis; format: in vivo; conditions: local thoracic irradiation 14 and 18 Gy
# TNF-α production = TNF-α production by LPS-stimulated peritoneal macrophages (ELISA); format: cell-based, murine; conditions: for TNF-α production: added to stimulated peritoneal macrophages 1 hr after LPS, supernatants at 24 hrs, ELISA
# Experimental: NPSPs were tested for their anti-inflammatory ability using murine macrophages. […] Briefly, peritoneal macrophages (PMs) were induced by intraperitoneal, injection of 150 μg MIS416 (Innate Immunotherapeutics, NZ) and harvested on day 4 by peritoneal wash out with PBS. Culture supernatants were harvested at 24 hrs and cytokines tested by ELISA (BD Biosciences, SD).
# C57Bl/6 mice = experiment: Localized abdominal irradiation survival; format: in vivo; conditions: 16 and 18 Gy abdominally
# [4] = system: induced peritoneal macrophages; experiment: Activation status of induced peritoneal macrophages after subcutaneous treatment of control or WBI mice; format: in vivo; conditions: for TNF-α production of induced peritoneal cells in response to LPS after treatment in vivo: compound given subcutaneously, macrophages harvested day 4, incubated 24 h with LPS
# Experimental: To determine if compound 2 (5355512), injected subcutaneously would affect the activation status of induced peritoneal macrophages, compound 2 (5355512) was given subcutaneously to control or WBI (5 Gy) and peritoneal macrophages harvested at day 4 as before. Cells from these groups of mice were incubated for 24 h with LPS or LPS then 512 (See FIG. 12). […] However, this “priming” effect was less when WBI and Compound 2 (5355512) were combined in vivo.
# [5] = system: C3Hf/Kam and C57B16/J mice; experiment: Animal Whole Body Irradiation (WBI) assay, mitigation of lethality; format: in vivo; conditions: for Mitigation of WBI lethality at 5 mg/kg: 5 mg/kg injected subcutaneously; for Most effective dose in dose response: C3H male mice, compared with 1, 2, 10, 40, or 75 mg/kg; for Mitigation of WBI lethality in C57Bl/6 female mice: LD70/30 dose 8.509 Gy; for Survivors at day 30: lowest dosage 5 mg/kg subcutaneously, superior to 40 and 75 mg/kg; for Mitigation of WBI lethality, oral gavage 5 mg/kg / Mitigation of WBI lethality, oral gavage 25 mg/kg: orally by gavage, 5 daily doses starting 24 hours post-WBI, C3H and C57Bl/6 strains; for Effect of increasing the single dose: single dose increased to 25 mg/kg, 24 hours after WBI; for Mitigation of WBI lethality, single dose: single dose of 5 mg/kg given 24 hours after WBI
# Experimental: Briefly, Animal Whole Body Irradiation (WBI) Assays were conducted with C3Hf/Kam and C57B16/J mice. The mice were bred and maintained in a strict gnotobiotic environment in the American Association of Laboratory Animal Care-Accredited Animal Facilities of Department of Radiation Oncology, UCLA. The Animal Care and Use Committee approved all experiments, which were performed in accordance with all local and national guidelines for the care and use of animals. Mice, 9-12 weeks old, were given WBI using a Gamma cell 40 irradiator (Cs137 source; Atomic Energy of Canada, Ltd.) at a dose rate of […]. Mice were monitored for at least 30 days and defined criteria for humane euthanasia was used as an endpoint.
# Compounds were typically dissolved in 15 μL DMSO and suspended in 1 mL of 1% Cremphor EL in water for administration in 0.2 mL volumes. […] All mice, including controls, received the same diluent as the experimental groups. The chosen compounds were administered to the mice 5 times at 24 h intervals, starting 24 hours after WBI at LD70/30 (7.725 Gy for the C3H strain) doses. Similar data were obtained with a single dose and at 48 hours after radiation exposure in both mouse strains. Both subcutaneous and oral routes were effective. The compounds provided greatly elevated animals survival level as compared to control group.
# Dose response experiments were executed in a manner similar to the WBI Assay described in Example 3. […] Both Compound 2 (53555.12) and Compound 3 (5346360) were effective in C57Bl/6 female mice in this case mitigating against LD70/30 doses of 8.509 Gy due to the relative radioresistance of this strain relative to C3Hs. […] When given orally by gavage, Compound 2 (535551.2) in 5 daily doses starting at 24 hours post-WBI was effective at 5 mg/kg in both C3H and C57Bl/6 strains, but not at 25 mg/kg.
# Probit analyses of the effect of varying the radiation dose with Compound 2 (5355512) (5 mg/kg), and Compound 3 (5346360) (5 mg/kg), or 5 (5116319) (75 mg/kg) given subcutaneously for 5 days starting 24 hours after WBI, is shown in FIG. 6, with 95% confidence limits shown for LD50 values. The dose-response curves are steep with the dose modifying factors varying with the level of effect and drug, but were in the range 1.04-1.09. Such factors have to be considered against the level of the control and the reason for lethality. In this case, hematological insufficiency and not infection is the cause of death and as a result the radioresistance of the C3H strain is relatively high.
# Compounds P1, P2, and P3, analogs of Compound 2 (5355512), were synthesized according to standard protocols. […] The analogs were injected subcutaneously 5 times over 5 clays at 5 mg/kg. Compound P2 elicited 100% survival after 30 days.
# TNF-α mRNA = experiment: Cytokine mRNA expression in LPS-stimulated bone marrow-derived macrophages (qPCR); format: cell-based, murine; conditions: added to bone marrow-derived macrophages 1 hr after LPS, RT-PCR
# Experimental: Additionally, bone marrow-derived macrophages (BMDMs) were derived by 7 days culture of marrow cells in medium containing 10% FBS and CSF-1 conditioned medium. The serum concentration was reduced to 2% FBS 16 h before stimulation with LPS for 30 min, treatment with drug and incubation for another 3.5 h (4 h total with LPS). Total cellular RNA was isolated by trizol and cDNA synthesized using iScript from BioRad. Gene expression was measured by qPCR and analyzed using the standard curve method, normalized to L32.
# [6] = Breakdown products identified in vivo by mass spectrometry; conditions: analog of Compound 2
# [7] = injected subcutaneously 5 times over 5 days at 5 mg/kg
compound,measurement,setting,value
"O=[N+]([O-])c1ccc(S(=O)(=O)N2CCN(c3ccc(F)cc3)CC2)cc1 [Compound 1, 1-(4-fluorophenyl)-4-[(4-nitrobenzene)sulfonyl]piperazine]",solubility,Solubility,26.6 µM
same,viability at 10 µM,[1],188%
"O=[N+]([O-])c1ccc(S(=O)(=O)N2CCN(c3ccccc3)CC2)cc1 [Compound 2, 1-[(4-nitrobenzene)sulfonyl]-4-phenylpiperazine]",solubility,Solubility,66.1 µM
same,Average endogenous CFU per spleen,[2],increased
same,Total endogenous CFU in spleens,[2],increased
same,Average endogenous CFU per spleen,[2]; listed as compound 2,increases
same,Total endogenous CFU in spleens,[2]; listed as compound 2,increases
same,Number of endogenous colony forming units in the spleens,[2]; mice that had received LD70/30 radiation doses,increased
same,Number of colonies with LTI plus drug versus LTI alone,[3]; 20 mg/kg daily for 5 days plus local thoracic irradiation 4 Gy daily for 3 days from day 5,not further decreased
same,Decrease in number of lung tumor colonies,"[3]; 20 mg/kg subcutaneously daily for 5 days from day 4, colonies counted day 14, P<0.05",20%
same,Size of lung tumor colonies,"[3]; 20 mg/kg subcutaneously daily for 5 days from day 4, day 14",smaller in size
same,Anti-inflammatory activity in vivo,myeloid suppressor cells,showed anti-inflammatory activity
same,Survival post thoracic radiation,C3H mice and C57 mice,supported survival of C3H mice and C57 mice to 100 days
same,TNF-α production,TNF-α production,inhibit TNF-α production
same,Anti-inflammatory activity: LPS-induced production of tumor necrosis factor and other inflammatory cytokines,TNF-α production; murine macrophages,showed anti-inflammatory activity
same,Mitigation of abdominal radiation,C57Bl/6 mice,mitigation of abdominal radiation
same,viability at 10 µM,[1],182%
same,Priming effect when WBI and compound combined in vivo,[4]; WBI (5 Gy) plus compound subcutaneously,less
same,TNF-α production of induced peritoneal cells in response to LPS after treatment in vivo,[4],“primed” induced peritoneal cells to produce TNF-α
same,TNF-α production of induced peritoneal cells in response to LPS after treatment in vivo,[4]; listed as compound 2,induces peritoneal macrophages to produce TNF-α
same,TNF-α production after addition of compound in vitro,[4]; harvested cells incubated with LPS then compound,blunted TNF-α production
same,Mitigation of WBI lethality at 5 mg/kg,[5],effective
same,Most effective dose in dose response,[5],5 mg/kg
same,Mitigation of WBI lethality in C57Bl/6 female mice,[5],effective
same,Survivors at day 30,[5],100%
same,"Mitigation of WBI lethality, oral gavage 5 mg/kg",[5],effective
same,"Mitigation of WBI lethality, oral gavage 25 mg/kg",[5],not
same,"Mitigation of WBI lethality, single dose at 48 hours",[5]; single dose given 48 hours after WBI,Some activity was retained
same,"Mitigation of WBI lethality, single dose at 72 hours",[5]; single dose given 72 hours after WBI,not
same,Effect of increasing the single dose,[5],did not improve efficacy
same,"Mitigation of WBI lethality, single dose",[5],effective
same,Expression of TNF-α mRNA and other cytokines,TNF-α mRNA,"inhibit expression of TNF-α mRNA, and other cytokines"
O=[N+]([O-])c1ccc(S(=O)(=O)N2CCN(c3cccc(Cl)c3)CC2)cc1 [Compound 3],solubility,Solubility,6.5 µM
same,TNF-α production,TNF-α production,inhibit TNF-α production
same,viability at 10 µM,[1],174%
same,Mitigation of WBI lethality at 5 mg/kg,[5],effective
same,Most effective dose in dose response,[5],5 mg/kg
same,Mitigation of WBI lethality in C57Bl/6 female mice,[5],effective
same,Survivors at day 30,[5],100%
same,"Mitigation of WBI lethality, oral gavage 5 mg/kg",[5],inactive
same,"Mitigation of WBI lethality, oral gavage 25 mg/kg",[5],inactive
same,Effect of increasing the single dose,[5],did not improve efficacy
same,"Mitigation of WBI lethality, single dose",[5],effective
same,Expression of TNF-α mRNA and other cytokines,TNF-α mRNA,"inhibit expression of TNF-α mRNA, and other cytokines"
"O=[N+]([O-])c1ccc(S(=O)(=O)N2CCN(C/C=C/c3ccccc3)CC2)cc1 [Compound 4, 1-[(4-nitrobenzene) Sulfonyl]-4-[(2E)-3-phenylprop-2-en-1-yl]piperazine]",solubility,Solubility,20.4 µM
same,viability at 10 µM,[1],163%
"CCN(CC)S(=O)(=O)c1ccc([N+](=O)[O-])cc1 [Compound 5, N,N-diethyl-4-nitrophenyl-1-sulfonamide]",solubility,Solubility,513 µM
same,TNF-α production,TNF-α production,able to inhibit TNF-α production
same,viability at 10 µM,[1],161%
O=[N+]([O-])c1ccc(S(=O)(=O)N2CCNCC2)cc1 [Compound P1],Solubility in water,Solubility,soluble in water
same,Breakdown product identification,[6],natural breakdown product identified in vivo
same,Mitigation of WBI lethality by analogs,[5]; [7],effective
NCCNS(=O)(=O)c1ccc([N+](=O)[O-])cc1 [Compound P2],Solubility in water,Solubility,soluble in water
same,Survival after 30 days,[5]; [7],100%
NCCCCCCCCNS(=O)(=O)c1ccc([N+](=O)[O-])cc1 [Compound P3],Solubility in water,Solubility,soluble in water
